Data on one sequence can be found in publication PMC9503518, “Antibacterial and Antifungal Properties of a Novel Antimicrobial Peptide GK-19 and Its Application in Skin and Soft Tissue Infections Induced by MRSA or Candida albicans” (Pharmaceutics, 2022).

Where no end group is shown, it is not given here.

Series [1] concerns Candida albicans (C. albicans, ATCC90028). The class given is cell-based. The settings on record: 1 × 10^6 CFU/mL, PDB, 12 h, peptide 0-20 μM, absorbance at 600 nm, n = 5. The text has this:
(§1) Pseudomonas aeruginosa (P. aeruginosa, ATCC27853), Methicillin-Resistant Staphylococcus aureus (MRSA, 2104270609, clinically isolated strain), Escherichia coli (E. coli, ATCC25922), Klebsiella pneumoniae (K. pneumoniae, ATCC700603), Enterococcus faecalis (E. faecalis, ATCC29212), Candida krusei (C. krusei, ATCC6258), Candida albicans (C. albicans, ATCC90028), and Candida glabrata (C. glabrata, ATCCMYA-2950) were obtained from the First Affiliated Hospital of Xi’an Jiaotong University. Bacterial strains were cultured in MHA or MHB. Fungal strains were cultured in PDA or PDB.
(§2) Strains were incubated in MHB or PDB. After growing for 12–16 h at 37 °C, 200 rpm, 100 μL of 1 × 10^6 CFU/mL of the strains was seeded into 96-well plates and incubated with fresh culture medium containing various antimicrobial peptides (peptide concentration: 0, 0.5, 1.0, 2.0, 3.0, 5.0, 10, 15 or 20 μM) for 12 h. Each concentration was repeated five times. Absorbance at 600 nm was measured using the Multilabel Reader Varioskan Flash (Thermo Fisher). […] (1)

Series [2] concerns Candida glabrata (C. glabrata, ATCCMYA-2950). The class given is cell-based. Conditions: 1 × 10^6 CFU/mL, PDB, 12 h, peptide 0-20 μM, absorbance at 600 nm, n = 5.
Source text: as §1, §2

Series [3] has as its system Candida krusei (C. krusei, ATCC6258). It is filed as cell-based. The settings on record: 1 × 10^6 CFU/mL, PDB, 12 h, peptide 0-20 μM, absorbance at 600 nm, n = 5.
Source text: as §1, §2

In series [4] the test system is Enterococcus faecalis (E. faecalis, ATCC29212). The class given is cell-based. Conditions: 1 × 10^6 CFU/mL, MHB, 12 h, peptide 0-20 μM, absorbance at 600 nm, n = 5.
Source text: as §1, §2

Series [5] deals with Escherichia coli (E. coli, ATCC25922). It is filed as cell-based. Conditions: 1 × 10^6 CFU/mL, MHB, 12 h, peptide 0-20 μM, absorbance at 600 nm, n = 5.
Source text: as §1, §2

The subject of series [6] is Klebsiella pneumoniae (K. pneumoniae, ATCC700603). It is filed as cell-based. Conditions: 1 × 10^6 CFU/mL, MHB, 12 h, peptide 0-20 μM, absorbance at 600 nm, n = 5.
Source text: as §1, §2

Series [7] deals with Methicillin-Resistant Staphylococcus aureus (MRSA, 2104270609, clinically isolated strain). The class given is cell-based. Conditions: 1 × 10^6 CFU/mL, MHB, 12 h, peptide 0-20 μM, absorbance at 600 nm, n = 5.
Source text: as §1, §2

Series [8] relates to Pseudomonas aeruginosa (P. aeruginosa, ATCC27853). The class given is cell-based. The settings on record: 1 × 10^6 CFU/mL, MHB, 12 h, peptide 0-20 μM, absorbance at 600 nm, n = 5.
Source text: as §1, §2

Series [9] in a line: Peptide stability in rat serum by HPLC. The class given is in vitro ADME. Conditions: 10 mg/mL in rat serum, 37 °C, 200 rpm, 24 h, HPLC peak area 220 nm, repeated three times; read-out: peptide remaining after 24 h of co-incubation with rat serum. How it is done:
Antimicrobial peptides were dissolved in water or rat serum with a concentration of 10 mg/mL. The solution was incubated at 37 °C, 200 rpm for different time periods, and diluted 50 times for the HPLC analysis. In water, the incubation time was 0 h and 48 h. In rat serum, the incubation time was 0, 2, 4, 7, 12, 24 or 48 h. Each incubation condition was repeated three times. HPLC was conducted on a Waters HPLC system, which consisted of a 2996 photodiode array detector, a 2695 separation module and a temperature control column oven. Column: Sinochrom ODS-BP, 5 μm, 4.6 × 250 mm (Dalian Elite Analytical Instruments Co., Ltd., Dalian, China). Mobile phase: A: 100% ACN + 0.1% TFA; B: 100% Water + 0.1% TFA. Gradient elution: 0–20 min, 95% B–100% A; 20–25 min, 100% A. Detection wavelength: 220 nm. Flow rate: 1 mL/min. Sample volume: 50 μL (0.2 mg/mL).

The subject of another series is Kunming mice. The settings on record: mouse, in vivo, iv. How it is done: Forty healthy male Kunming mice weighing ~25 g (5–6 weeks old) were injected intravenously with 100 μL of GK-19 with concentrations of 5 μmol/kg (n = 15) or 25 μmol/kg (n = 15). Mice blood samples (n = 5, per group and per time point) were collected from the mice’s eyeballs on days 1, 3 and 7 after injection for renal function test and liver function test. Meanwhile, major organs including lungs, heart, kidneys, liver and spleen were also harvested for hematoxylin and eosin staining on days 1, 3 and 7 after injection. To monitor the body weight changes in mice after injection of GK-19, five healthy male Kunming mice weighing ~25 g were injected intravenously with 100 μL of GK-19 with concentrations of 25 μmol/kg. Mice weights were recorded daily for seven days.
The hematoxylin and eosin staining in this study was carried out by Servicebio (Wuhan, China). Briefly, the obtained skin tissues were soaked in 4% paraformaldehyde solution (Beyotime, China) and fixed for more than 24 h. Then, they were dehydrated and embedded with paraffin, and tissue sections having thicknesses of 4 μm were prepared. After deparaffinization and rehydration, hematoxylin and eosin staining was performed.

The test system of a further series is rat erythrocytes. Conditions: rat RBC suspension in PBS, up to 100 μM, 37 °C, 1 h, OD 576 nm, 1% Triton X-100 = 100%, six replicates.

Usually fraction remaining stands for what is left of the initial amount, in per cent.

Protocol for rat erythrocytes: The hemolysis assay was carried out as reported in the literature [22]. Briefly, healthy male rats weighing ~300 g were anesthetized by isoflurane using a small animal anesthesia machine (R640, RWD Life Science, Shenzhen, China). Fresh rat blood samples were drawn from the ventral main vein and collected into an ethylene diamine tetraacetic acid (EDTA) treated anticoagulation tube. The collected blood samples were centrifuged at 4 °C, 350× g for five minutes. Red blood cells (RBCs) were pipetted and washed three times with cold PBS. […] These tubes were incubated at 37 °C, 1000 rpm in a BG200 dry bath incubator (Hangzhou LongGene Scientific Instruments Co., Ltd., Hangzhou, China) for 1 h. Then, the tubes were centrifuged at 350× g for 5 min. Next, 20 μL of the supernatants was mixed with 180 μL of PBS. Afterwards, 100 μL of the mixture was transferred into 96-well plates and hemoglobin release was monitored at 576 nm using a Multilabel Reader Varioskan Flash (Thermo Fisher). The RBC suspension in PBS was used as a negative control. The absorbance of the wells containing 1% Triton X-100 was taken as 100% hemolysis. The percentage of hemolysis was calculated using this formula:Hemolysis (%) = [(OD576 nm of the peptide solution − OD576 nm of the negative control)/(OD576 nm of the positive control − OD576 nm of the negative control)] × 100. (3) […]

As to GFLFKLIPKAIKKLISKFK [GK-19], in series [1], the “Minimum inhibitory concentration (MIC), C. albicans” value came to 10 µM. In series [2], the “Minimum inhibitory concentration (MIC), C. glabrata” value worked out at 10 µM. In addition, in [3], the “Minimum inhibitory concentration (MIC), C. krusei” value was found to be 5 µM. The “Minimum inhibitory concentration (MIC), E. faecalis” value in series [4] came to 3 µM. Moreover, the “Minimum inhibitory concentration (MIC), E. coli” value in series [5] worked out at 3 µM. In addition, the “Minimum inhibitory concentration (MIC), K. pneumoniae” value in series [6] worked out at 5 µM. In addition, the “Minimum inhibitory concentration (MIC), MRSA” value in series [7] was determined as 5 µM. The “Minimum inhibitory concentration (MIC), P. aeruginosa” value in [8] came to 5 µM. Also, the share remaining at 24 h, 10 mg/mL in series [9] is > 50%. In the series with Kunming mice, the body weight change result is recorded as “gradual gain in body weight”; the “histology of major organs (heart, liver, spleen, lungs, kidneys)” value was “no observable tissue damage, necrosis, or inflammation”; the “liver and renal function tests” value is “no difference from that in healthy mice”. Further, the hemolytic activity result with rat erythrocytes is “negligible hemolytic activity”.
